Source: US20120208750A1, “USE OF PROTEIN KINASE C DELTA (PKCD) INHIBITORS TO TREAT DIABETES, OBESITY, AND HEPATIC STEATOSIS” (JOSLIN DIABETES CENTER, INC., priority 2009, published 2012)

Experiments:
Format in all cases: in vivo, mouse
PKCd [1] = test: PKCd mRNA expression in streptozotocin diabetic mice and insulin- or phlorizin-rescued mice (qPCR); details: STZ diabetic mice; rescue with s.c. insulin pellets or phlorizin 0.4 g/kg s.c. twice daily 10 days, FIG. 2F-G
Description: (§1) Expression of PKCd mRNA and protein was assayed in livers mice of various genotypes and under various conditions of diet. For all mRNA studies samples were prepared using RNeasy extraction kit according to the manufacturer protocol (QIAGEN), mRNA was measured by quantitative real-time PCR (qPRC), and results were normalized to TBP. For western blot analysis, 40-50 ug of each extract was loaded per lane. Each lane represents an individual animal. On a normal chow diet at 24 weeks of age, B6 mice have ˜60% higher levels of PKCd mRNA in liver than 129 mice (1.11±0.11 vs. 0.71±0.04, p<0.02) (FIG. 1A). […] These differences in PKCd messenger expression lead to similar differences in expression at the protein level when assessed by Western blot analysis of liver extracts (FIG. 1B). This difference in PKCd expression between B6 and 129 mice was also observed at 6 weeks of age (FIG. 1C), when 129 mice actually weigh slightly more than the B6 (22.1±0.5 vs. 19.8±0.3 g, p<0.001) and have identical glucose and insulin levels.
Streptozotocin treatment was performed as follows. Mice at 6 weeks of age received either daily i.p. injections of sodium citrate (pH 4.3) for controls or STZ (Sigma) resuspended in sodium citrate, 100 μg per g of body weight for three consecutive days. When these mice achieved fed glucose levels of >400 mg/dl for three consecutive days, they were separated into two equal groups. One group was not treated, while the other were treated with s.c. insulin pellets (LinShin, Toronto, ON, Canada), to obtain fed glucose levels of <200 mg/dl for at least three consecutive days. For phlorizin treatment of diabetic mice, male 8-week-old C57B1/6 mice were treated with a single intraperitoneal injection (200 μg/g body weight) of STZ (Sigma). PHZ (Sigma) was dissolved in a solution containing 10% ethanol, 15% DMSO, and 75% saline and was injected subcutaneously at a dose of 0.4 g/kg twice daily for 10 days from 8 days after the STZ injection. Control mice were injected with the same volume of vehicle.

PKCd [2] = test: PKCd mRNA expression in liver of leptin and/or insulin treated ob/ob mice (qPCR); details: short-term infusion (osmotic pump 4 days; insulin pellets s.c.), FIG. 2C
Description: as §1
Although the difference in PKCd expression can be observed between B6 and 129 mice prior to the onset of obesity, obesity and insulin resistance also regulate PKCd. […]

Bip = test: Western blot of liver protein expression in tunicamycin-treated mice (ER stress): Bip; details: 1 μg/g i.p., 2, 4, 6 and 8 hours post-injection, FIG. 2E
PKCd [3] = test: Western blot of liver protein expression in tunicamycin-treated mice (ER stress): PKCd; details: 1 μg/g i.p., 2, 4, 6 and 8 hours post-injection, FIG. 2E
Description: as §1
To induce an inflammation in vivo, mice were injected intraperitoneally with 100 μg LPS (Escherichia coli 55:B5; Sigma) or sterile saline as control. Mice were sacrificed 18 hours post-injection. […]

Molecule | differences in PKCd expression vs control (PKCd [1]) | reversal of increased expression of PKCd in liver (PKCd [2]) | ER stress chaperone protein Bip expression in liver (Bip) | PKCd protein expression in liver during onset of ER stress (PKCd [3])
O=C(CCc1ccc(O)cc1)c1c(O)cc(O)cc1O[C@@H]1O[C@H](CO)[C@@H](O)[C@H](O)[C@H]1O [phlorizin] | no differences |  |  | 
insulin | no differences | not reversed |  | 
CN(N=O)C(=O)N[C@H]1C(O)O[C@H](CO)[C@@H](O)[C@@H]1O (mixture of isomers) [STZ, streptozotocin] | no differences |  |  | 
tunicamycin |  |  | clearly induced | did not observe any alterations
leptin: recombinant mouse leptin delivered by osmotic pump (protein, UniProt P41160 22-167, looked up) Leptin: VPIQKVQDDTKTLIKTIVTRINDISHTQSVSAKQRVTGLDFIPGLHPILSLSKMDQTLAVYQQVLTSLPSQNVLQIANDLENLRDLLHLLAFSKSCSLPQTSGLQKPESLDGVLEASLYSTEVVALSRLQGSLQDILQQLDVSPEC |  | not reversed |  | 
